A word on the residual activity: it is the signal under treatment as a percentage of the control signal.

Structures are written as SMILES.

Test in all cases: Dundee kinase panel
Holding throughout (format): biochemical
Common to all, as to conditions: for remaining activity at 1 µM: read-out: residual activity

In one assay the target is T1, IR (Homo sapiens, UniProt P06213).
T1 construct: lines 1-140) and Reaction Biology
As to the method: (§1) Compounds were screened at 1 μM. For key hits, pIC50 values were then determined by HTRF as above. […] Stability in mouse and human liver microsomes was determined by Cyprotex.

The target in a further assay is T2, LKB1 (Homo sapiens, UniProt Q15831).
T2 construct: lines 1-140) and Reaction Biology
T2 sequence (Q15831 1-433): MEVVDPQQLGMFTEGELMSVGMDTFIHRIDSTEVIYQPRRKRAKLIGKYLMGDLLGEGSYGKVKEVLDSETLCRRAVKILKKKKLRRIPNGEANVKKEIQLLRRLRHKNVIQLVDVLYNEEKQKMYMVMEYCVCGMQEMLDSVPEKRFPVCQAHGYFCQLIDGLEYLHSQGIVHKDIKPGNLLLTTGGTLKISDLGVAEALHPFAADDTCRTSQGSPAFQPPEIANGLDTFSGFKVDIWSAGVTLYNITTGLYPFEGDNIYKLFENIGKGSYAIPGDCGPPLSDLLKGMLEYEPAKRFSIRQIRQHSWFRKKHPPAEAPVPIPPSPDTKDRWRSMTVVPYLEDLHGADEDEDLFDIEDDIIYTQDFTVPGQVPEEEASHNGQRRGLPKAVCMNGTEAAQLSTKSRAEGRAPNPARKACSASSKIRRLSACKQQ
T2 sequence (Q7RTN6 1-431 partner): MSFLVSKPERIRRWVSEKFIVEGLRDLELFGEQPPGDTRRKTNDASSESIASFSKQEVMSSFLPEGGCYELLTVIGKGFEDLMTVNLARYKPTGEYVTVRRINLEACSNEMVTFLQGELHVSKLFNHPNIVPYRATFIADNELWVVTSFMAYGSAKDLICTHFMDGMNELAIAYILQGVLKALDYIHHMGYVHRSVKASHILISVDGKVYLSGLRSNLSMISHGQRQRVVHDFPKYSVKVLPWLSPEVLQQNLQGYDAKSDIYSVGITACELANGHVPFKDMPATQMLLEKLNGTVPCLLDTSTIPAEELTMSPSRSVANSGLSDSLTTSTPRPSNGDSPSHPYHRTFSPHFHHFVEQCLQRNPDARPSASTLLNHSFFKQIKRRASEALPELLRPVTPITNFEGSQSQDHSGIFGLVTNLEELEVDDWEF
T2 sequence (Q9Y376 1-341 partner): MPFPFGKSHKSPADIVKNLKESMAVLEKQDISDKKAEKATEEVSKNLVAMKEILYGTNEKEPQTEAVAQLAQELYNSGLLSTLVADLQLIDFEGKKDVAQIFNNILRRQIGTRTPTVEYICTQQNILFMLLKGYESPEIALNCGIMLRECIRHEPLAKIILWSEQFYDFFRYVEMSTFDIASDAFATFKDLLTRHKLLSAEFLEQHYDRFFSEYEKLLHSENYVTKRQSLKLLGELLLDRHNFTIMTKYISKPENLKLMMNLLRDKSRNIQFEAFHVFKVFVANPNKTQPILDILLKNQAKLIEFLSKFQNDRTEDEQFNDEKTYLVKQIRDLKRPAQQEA
Here is the method:
as §1

A further assay concerns the target T3, MARK2 (Homo sapiens, UniProt Q7KZI7).
T3 construct: lines 1-140) and Reaction Biology
As to the method: as §1

The target in another assay is T4, IKKb (Homo sapiens, UniProt O14920).
T4 construct: lines 1-140) and Reaction Biology
T4 sequence (O14920 1-756): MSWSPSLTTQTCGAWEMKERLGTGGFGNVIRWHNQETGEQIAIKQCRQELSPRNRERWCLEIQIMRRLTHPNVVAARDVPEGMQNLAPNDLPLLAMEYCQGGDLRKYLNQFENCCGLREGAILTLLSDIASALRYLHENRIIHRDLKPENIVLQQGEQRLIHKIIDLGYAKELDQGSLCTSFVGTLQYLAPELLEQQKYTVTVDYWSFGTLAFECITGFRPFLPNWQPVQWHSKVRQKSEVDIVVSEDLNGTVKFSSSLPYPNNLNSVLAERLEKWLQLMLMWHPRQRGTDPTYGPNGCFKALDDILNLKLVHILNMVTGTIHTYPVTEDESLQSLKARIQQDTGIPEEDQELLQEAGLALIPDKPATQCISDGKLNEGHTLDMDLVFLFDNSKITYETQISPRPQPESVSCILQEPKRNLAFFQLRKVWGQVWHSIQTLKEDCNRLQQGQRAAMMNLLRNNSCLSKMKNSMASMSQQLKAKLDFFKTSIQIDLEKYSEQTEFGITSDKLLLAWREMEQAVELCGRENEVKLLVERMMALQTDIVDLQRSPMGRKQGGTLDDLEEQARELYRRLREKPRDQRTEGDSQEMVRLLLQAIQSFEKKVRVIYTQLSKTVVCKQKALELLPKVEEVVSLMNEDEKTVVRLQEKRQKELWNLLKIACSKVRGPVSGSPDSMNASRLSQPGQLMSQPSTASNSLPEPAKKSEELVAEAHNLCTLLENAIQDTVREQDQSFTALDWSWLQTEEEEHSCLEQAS
Here is the method: as §1

T3 sequence (Q7KZI7 whole entry): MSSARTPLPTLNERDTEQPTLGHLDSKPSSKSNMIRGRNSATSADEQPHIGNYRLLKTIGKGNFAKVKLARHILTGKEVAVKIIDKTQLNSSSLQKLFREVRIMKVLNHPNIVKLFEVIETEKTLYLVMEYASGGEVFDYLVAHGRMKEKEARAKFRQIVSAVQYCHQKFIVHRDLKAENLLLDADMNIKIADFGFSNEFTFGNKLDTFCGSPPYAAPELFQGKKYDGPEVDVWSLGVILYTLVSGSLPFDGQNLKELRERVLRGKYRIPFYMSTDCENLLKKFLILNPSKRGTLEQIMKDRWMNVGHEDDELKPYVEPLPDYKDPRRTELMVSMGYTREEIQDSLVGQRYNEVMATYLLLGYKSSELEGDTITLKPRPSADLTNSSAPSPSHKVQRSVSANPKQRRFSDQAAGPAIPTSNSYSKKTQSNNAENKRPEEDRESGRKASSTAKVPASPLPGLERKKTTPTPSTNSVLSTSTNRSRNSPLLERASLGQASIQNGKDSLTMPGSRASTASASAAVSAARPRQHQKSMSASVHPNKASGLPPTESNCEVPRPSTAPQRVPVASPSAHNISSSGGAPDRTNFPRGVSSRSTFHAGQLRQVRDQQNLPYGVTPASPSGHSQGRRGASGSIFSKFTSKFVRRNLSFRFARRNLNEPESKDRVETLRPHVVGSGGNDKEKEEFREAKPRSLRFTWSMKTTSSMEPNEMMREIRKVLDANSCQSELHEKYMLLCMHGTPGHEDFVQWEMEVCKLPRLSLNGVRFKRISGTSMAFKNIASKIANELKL
T1 sequence (P06213 28-1382): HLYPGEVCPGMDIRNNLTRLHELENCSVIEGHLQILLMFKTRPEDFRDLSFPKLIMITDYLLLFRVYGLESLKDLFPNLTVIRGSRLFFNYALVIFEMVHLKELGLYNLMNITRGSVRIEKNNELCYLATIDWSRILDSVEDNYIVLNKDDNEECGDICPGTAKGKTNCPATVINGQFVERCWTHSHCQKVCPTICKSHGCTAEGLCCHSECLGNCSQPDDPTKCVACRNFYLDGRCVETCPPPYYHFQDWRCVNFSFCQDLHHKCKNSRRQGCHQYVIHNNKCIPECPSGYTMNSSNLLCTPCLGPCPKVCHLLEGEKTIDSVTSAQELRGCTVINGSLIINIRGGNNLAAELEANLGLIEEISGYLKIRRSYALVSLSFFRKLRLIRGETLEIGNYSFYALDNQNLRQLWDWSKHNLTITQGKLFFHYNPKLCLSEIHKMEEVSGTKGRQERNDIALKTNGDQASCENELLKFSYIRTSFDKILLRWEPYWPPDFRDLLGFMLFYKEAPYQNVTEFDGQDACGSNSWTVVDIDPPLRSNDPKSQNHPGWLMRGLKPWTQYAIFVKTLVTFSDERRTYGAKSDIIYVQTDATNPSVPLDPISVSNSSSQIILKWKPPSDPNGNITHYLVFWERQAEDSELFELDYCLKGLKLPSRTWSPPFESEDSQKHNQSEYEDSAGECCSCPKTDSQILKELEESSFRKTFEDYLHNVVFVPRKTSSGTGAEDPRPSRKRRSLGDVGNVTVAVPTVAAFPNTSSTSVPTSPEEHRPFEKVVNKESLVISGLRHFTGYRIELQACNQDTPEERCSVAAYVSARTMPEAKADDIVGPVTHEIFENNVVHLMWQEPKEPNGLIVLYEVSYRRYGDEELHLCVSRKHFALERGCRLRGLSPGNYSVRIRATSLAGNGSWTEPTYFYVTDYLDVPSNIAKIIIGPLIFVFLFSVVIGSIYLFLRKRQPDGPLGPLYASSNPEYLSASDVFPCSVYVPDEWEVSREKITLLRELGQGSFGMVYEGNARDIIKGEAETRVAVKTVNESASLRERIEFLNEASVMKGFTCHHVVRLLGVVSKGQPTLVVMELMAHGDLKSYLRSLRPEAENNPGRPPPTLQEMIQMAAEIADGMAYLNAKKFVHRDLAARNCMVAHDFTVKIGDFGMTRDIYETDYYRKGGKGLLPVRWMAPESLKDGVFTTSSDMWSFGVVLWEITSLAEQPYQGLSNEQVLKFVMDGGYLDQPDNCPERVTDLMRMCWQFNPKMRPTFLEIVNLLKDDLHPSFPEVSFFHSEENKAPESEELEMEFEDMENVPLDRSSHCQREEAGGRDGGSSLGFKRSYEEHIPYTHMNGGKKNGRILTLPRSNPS

As for `O=C1Nc2ccc(I)cc2/C1=C/c1cc(Br)c(O)c(Br)c1` [GW5074], the remaining activity at 1 µM on IR was found to be 26%; on LKB1 it was 68%; at MARK2 it was 49%; on IKKb, 73%.
For the molecule `Nc1ncc(C(=O)NC2CN(C(=O)C3CC3)C2)c2ccc(-c3cccc(F)c3)nc12` [GNE-495], the residual activity on IR (1 μM) came out at 107%; on LKB1 (1 μM) it was 87%; at MARK2 (1 μM), 42%; at IKKb (1 μM) it was 88%.
Regarding `Oc1ncnc2c1c(-c1ccccc1)cn2-c1ccccc1` [F1386-0303, 5,7-diphenyl-7H-pyrrolo[2,3-d]pyrimidin-4-ol], the remaining activity at 1 µM at IR came out at 118%; on LKB1, 96%; on MARK2, 98%; at IKKb, 102%.
Taken in the same sequence, the figures for `COCCOc1ccc(-c2cn(-c3ccccc3)c3nc[nH]c(=O)c23)cc1` [DMX-5804, 5-[4-(2-methoxy-ethoxy)-phenyl]-7-phenyl-3,7-dihydro-pyrrolo[2,3-d]pyrimidin-4-one] were 115%, 105%, 98% and 107%.
As to `O=C1Cc2c([nH]c3ccc(Br)cc23)-c2ccccc2N1` [Kenpaullone], the remaining activity at 1 µM on IR amounted to 43%; on LKB1 it was 89%; at MARK2 it was 35%; on IKKb it was 103%.

Values taken from PMC6458995, “MAP4K4 Inhibition Promotes Survival of Human Stem Cell-Derived Cardiomyocytes and Reduces Infarct Size In Vivo” (Cell Stem Cell, 2019).
